Reference: patent US12077503B2, “Substituted cyclic amides and their use as herbicides” (FMC CORPORATION, priority 2015, dated 2024)

Tests used:
Assay in all cases: Test C preemergence
Assay type in all cases: in vivo
[1] = system: crabgrass, large (large crabgrass, Digitaria sanguinalis); conditions: for Plant response rating, Crabgrass, Large: scale 0 to 100, 0 no effect, 100 complete control
Procedure, shortened: (§1)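 Herbicidal effect, applied preemergence to sown seeds or postemergence to 1- to 4-leaf plants, was scored visually 13 to 15 d after application, 0 to 100 versus controls.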

[2] = system: foxtail, giant (giant foxtail, Setaria faberii); conditions: for Plant response rating, Foxtail, Giant: scale 0 to 100, 0 no effect, 100 complete control
Procedure, shortened: as §1

[3] = system: waterhemp (common waterhemp, Amaranthus rudis); conditions: for Plant response rating, Waterhemp: scale 0 to 100, 0 no effect, 100 complete control
Procedure, shortened: as §1

corn (Zea mays) = conditions: for Plant response rating, Corn: scale 0 to 100, 0 no effect, 100 complete control
Procedure, shortened: as §1

[4] = system: barnyardgrass (Echinochloa crus-galli); conditions: for Plant response rating, Barnyardgrass: scale 0 to 100, 0 no effect, 100 complete control
Procedure, shortened: as §1

[5] = system: johnsongrass (Sorghum halepense); conditions: for Plant response rating, Johnsongrass: scale 0 to 100, 0 no effect, 100 complete control
Procedure, shortened: as §1

[6] = system: Galium (catchweed bedstraw, Galium aparine); conditions: for Plant response rating, Galium: scale 0 to 100, 0 no effect, 100 complete control
Procedure, shortened: as §1

soybean (Glycine max) = conditions: for Plant response rating, Soybean: scale 0 to 100, 0 no effect, 100 complete control
Procedure, shortened: as §1

[7] = system: velvetleaf (Abutilon theophrasti); conditions: for Plant response rating, Velvetleaf: scale 0 to 100, 0 no effect, 100 complete control
Procedure, shortened: as §1

[8] = system: morningglory (Ipomoea coccinea); conditions: for Plant response rating, Morningglory: scale 0 to 100, 0 no effect, 100 complete control
Procedure, shortened: as §1

[9] = system: nutsedge, yellow (yellow nutsedge, Cyperus esculentus); conditions: for Plant response rating, Nutsedge, Yellow: scale 0 to 100, 0 no effect, 100 complete control
Procedure, shortened: as §1

[10] = system: lambsquarters (Chenopodium album); conditions: for Plant response rating, Lambsquarters: scale 0 to 100, 0 no effect, 100 complete control
Procedure, shortened: as §1

[11] = system: ryegrass, Italian (Italian ryegrass, Lolium multiflorum); conditions: for Plant response rating, Ryegrass, Italian: scale 0 to 100, 0 no effect, 100 complete control
Procedure, shortened: as §1

[12] = system: pigweed (Amaranthus retroflexus); conditions: for Plant response rating, Pigweed: scale 0 to 100, 0 no effect, 100 complete control
Procedure, shortened: as §1

[13] = system: ragweed (common ragweed, Ambrosia elatior); conditions: for Plant response rating, Ragweed: scale 0 to 100, 0 no effect, 100 complete control
Procedure, shortened: as §1

[14] = system: wheat (winter wheat, Triticum aestivum); conditions: for Plant response rating, Wheat: scale 0 to 100, 0 no effect, 100 complete control
Procedure, shortened: as §1

[15] = system: oilseed rape (Brassica napus); conditions: for Plant response rating, Oilseed Rape: scale 0 to 100, 0 no effect, 100 complete control
Procedure, shortened: as §1

[16] = 31 g ai/ha, 0 is no effect, 100 is complete control

Cc1ccc(C2CN(C)C(=O)C2C(=O)Nc2cccc(F)c2F)cc1 (centres unmarked) [Compound 662]
Plant response rating (scale of 0 to 100), Crabgrass, Large [1, 16]: 98 | Plant response rating, Crabgrass, Large ([1]; 62 g ai/ha): 98 | Plant response rating, Crabgrass, Large ([1]; 125 g ai/ha): 100 | Plant response rating, Crabgrass, Large ([1]; 250 g ai/ha): 100 | Plant response rating (scale of 0 to 100), Foxtail, Giant [2, 16]: 95 | Plant response rating, Foxtail, Giant ([2]; 62 g ai/ha): 95 | Plant response rating, Foxtail, Giant ([2]; 125 g ai/ha): 95 | Plant response rating, Foxtail, Giant ([2]; 250 g ai/ha): 98 | Plant response rating (scale of 0 to 100), Waterhemp [3, 16]: 60 | Plant response rating, Waterhemp ([3]; 62 g ai/ha): 80 | Plant response rating, Waterhemp ([3]; 125 g ai/ha): 85 | Plant response rating, Waterhemp ([3]; 250 g ai/ha): 90 | Plant response rating (scale of 0 to 100), Corn (corn (Zea mays); [16]): 55 | Plant response rating, Corn (corn (Zea mays); 62 g ai/ha): 70 | Plant response rating, Corn (corn (Zea mays); 125 g ai/ha): 80 | Plant response rating, Corn (corn (Zea mays); 250 g ai/ha): 85 | Plant response rating (scale of 0 to 100), Barnyardgrass [4, 16]: 95 | Plant response rating, Barnyardgrass ([4]; 62 g ai/ha): 98 | Plant response rating, Barnyardgrass ([4]; 125 g ai/ha): 98 | Plant response rating, Barnyardgrass ([4]; 250 g ai/ha): 100 | Plant response rating (scale of 0 to 100), Johnsongrass [5, 16]: 60 | Plant response rating, Johnsongrass ([5]; 62 g ai/ha): 70 | Plant response rating, Johnsongrass ([5]; 125 g ai/ha): 90 | Plant response rating, Johnsongrass ([5]; 250 g ai/ha): 90 | Plant response rating (scale of 0 to 100), Galium [6, 16]: 90 | Plant response rating, Galium ([6]; 62 g ai/ha): 100 | Plant response rating, Galium ([6]; 125 g ai/ha): 100 | Plant response rating, Galium ([6]; 250 g ai/ha): 90 | Plant response rating (scale of 0 to 100), Soybean (soybean (Glycine max); [16]): 0 | Plant response rating, Soybean (soybean (Glycine max); 62 g ai/ha): 0 | Plant response rating, Soybean (soybean (Glycine max); 125 g ai/ha): 0 | Plant response rating, Soybean (soybean (Glycine max); 250 g ai/ha): 0 | Plant response rating (scale of 0 to 100), Velvetleaf [7, 16]: 35 | Plant response rating, Velvetleaf ([7]; 62 g ai/ha): 50 | Plant response rating, Velvetleaf ([7]; 125 g ai/ha): 70 | Plant response rating, Velvetleaf ([7]; 250 g ai/ha): 75 | Plant response rating (scale of 0 to 100), Morningglory [8, 16]: 0 | Plant response rating, Morningglory ([8]; 62 g ai/ha): 0 | Plant response rating, Morningglory ([8]; 125 g ai/ha): 30 | Plant response rating, Morningglory ([8]; 250 g ai/ha): 25 | Plant response rating (scale of 0 to 100), Nutsedge, Yellow [9, 16]: 0 | Plant response rating, Nutsedge, Yellow ([9]; 62 g ai/ha): 0 | Plant response rating, Nutsedge, Yellow ([9]; 125 g ai/ha): 0 | Plant response rating, Nutsedge, Yellow ([9]; 250 g ai/ha): 0 | Plant response rating (scale of 0 to 100), Lambsquarters [10, 16]: 100 | Plant response rating, Lambsquarters ([10]; 62 g ai/ha): 85 | Plant response rating, Lambsquarters ([10]; 125 g ai/ha): 100 | Plant response rating, Lambsquarters ([10]; 250 g ai/ha): 100 | Plant response rating (scale of 0 to 100), Ryegrass, Italian [11, 16]: 50 | Plant response rating, Ryegrass, Italian ([11]; 62 g ai/ha): 70 | Plant response rating, Ryegrass, Italian ([11]; 125 g ai/ha): 80 | Plant response rating, Ryegrass, Italian ([11]; 250 g ai/ha): 95 | Plant response rating (scale of 0 to 100), Pigweed [12, 16]: 70 | Plant response rating, Pigweed ([12]; 62 g ai/ha): 60 | Plant response rating, Pigweed ([12]; 125 g ai/ha): 75 | Plant response rating, Pigweed ([12]; 250 g ai/ha): 80 | Plant response rating (scale of 0 to 100), Ragweed [13, 16]: 70 | Plant response rating, Ragweed ([13]; 62 g ai/ha): 75 | Plant response rating, Ragweed ([13]; 125 g ai/ha): 80 | Plant response rating, Ragweed ([13]; 250 g ai/ha): 85 | Plant response rating (scale of 0 to 100), Wheat [14, 16]: 35 | Plant response rating, Wheat ([14]; 62 g ai/ha): 70 | Plant response rating, Wheat ([14]; 125 g ai/ha): 90 | Plant response rating, Wheat ([14]; 250 g ai/ha): 90 | Plant response rating (scale of 0 to 100), Oilseed Rape [15, 16]: 70 | Plant response rating, Oilseed Rape ([15]; 62 g ai/ha): 85 | Plant response rating, Oilseed Rape ([15]; 125 g ai/ha): 90 | Plant response rating, Oilseed Rape ([15]; 250 g ai/ha): 90
